Reference: patent US20080213385A1, “Formulations for 7- (T-Butoxy) Iminomethyl Camptothecin” (priority 2005, published 2008)

Columns and labels:
[1] = Particle size distribution by laser light scattering; assay type: physicochemical; settings: after milling (unmilled for unmilled drug)
Experimental: The aqueous nano-milling was performed in a ball mill using yittrium […] zirconia beads (0.5-0.6 mm in 0). For all trials the batch size was approximately 70 g. Prior to milling the beads were conditioned with 1% stabilizer solution for 24 hours at 1,200 rpm (minimal speed, 80 mL solution for 160 mL beads), rinsed with demineralized water until conductivity reading was the same as that of the water, placed in a 150-200° C. oven until dry and cooled to room temperature before use. Milling was performed at 3,200 rpm and milling times as outlined in Table 1 were used. Before and after milling the aqueous suspensions were characterized with respect to particle size distribution, appearance (microscopic pictures and laser light scattering), and dissolution rate and assay/degradation.

[2] = In vitro dissolution rate testing (USP2 apparatus, paddle); assay type: physicochemical; settings: 50 rpm, 37° C., 0.3% SDS in 1,000 mL water
Experimental: The dissolution rate testing was done using an USP2 apparatus, paddle, 50 rpm, 37° C., 0.3% SDS in 1,000 mL water, n=3. For dissolution rate testing, the aqueous suspensions were diluted 1:5 with water and filled into vials (0.5 mg drug substance/vial).

## CC[C@@]1(O)C(=O)OCc2c1cc1n(c2=O)Cc2c-1nc1ccccc1c2/C=N/OC(C)(C)C [Unmilled drug, 7-t-butoxyiminomethylcamptothecin]
[1]
  PSD (light scattering, after milling) x10: x10 = 2 μm
  PSD (light scattering, after milling) x50: x50 = 9 μm
  PSD (light scattering, after milling) x90: x90 = 35 μm
[2]; 0.5 mg drug substance/vial, 15 min
  Dissolution rate: % released, mean (n = 3), after 15 min: 3%
[2]; 30 min
  Dissolution rate: % released, mean (n = 3), after 30 min: 5%
[2]; 60 min
  Dissolution rate: % released, mean (n = 3), after 60 min: 15%
[2]; 120 min
  Dissolution rate: % released, mean (n = 3), after 120 min: 31%
